Laboratory results reported in ChEMBL document CHEMBL1138895, “Synthesis and antibacterial activity of nocathiacin I analogues” (Bioorg Med Chem Lett, 2006).
Values after ≈ are worked out from the molar mass of the structure shown.

Columns and labels:
[1] = test system: Staphylococcus aureus; test: Antibacterial activity against methicillin-sensitive Staphylococcus aureus A15090; assay type: functional
[2] = test system: Streptococcus pneumoniae; test: Antibacterial activity against penicillin resistant Streptococcus pneumoniae A28272; assay type: functional
[3] = test system: Enterococcus faecalis; test: Antibacterial activity against […] A20688; assay type: functional
[4] = species: Mus musculus; test: Activity against Staphylococcus aureus A15090 infected ICR mouse after 8 days; assay type: functional; conditions: 192 h, read-out: PD50
[5] = Solubility at pH 3.1; assay type: physicochemical; conditions: buffer
[6] = Solubility at pH 7.4; assay type: physicochemical; conditions: buffer
[7] = Solubility at pH 3.0; assay type: physicochemical; conditions: buffer

Row | SMILES | MIC [1] [µg/mL] | MIC [2] [µg/mL] | MIC [3] [µg/mL] | ED50 [4] [mg/kg] | solubility [5] [µg/mL] | solubility [6] [µg/mL] | solubility [7] [µg/mL]
1 | CO/C(C)=C1/NC(=O)[C@H]([C@@H](C)O)NC(=O)c2csc(n2)-c2cc(O)c(-c3nc(C(=O)N[C@@H](C)C(=O)NCCO)cs3)nc2-c2csc(n2)[C@@H]2COC(=O)c3c4c5c(cccc5n3O)COC(=O)[C@@H](O[C@H]3C[C@](C)(O)[C@H](N(C)C)[C@H](C)O3)[C@@H](OC4)[C@H](NC(=O)c3csc1n3)c1nc(cs1)C(=O)N2 | 0.03 (≈ 0.0202 µM) | 0.001 (≈ 0.000674 µM) | 0.5 (≈ 0.337 µM) | 1.44 | 1300 (≈ 876 µM) | – | –
2 | CO/C(C)=C1/NC(=O)[C@H]([C@@H](C)O)NC(=O)c2csc(n2)-c2cc(O)c(-c3nc(C(=O)N[C@@H](C)C(N)=O)cs3)nc2-c2csc(n2)[C@@H]2COC(=O)c3c4c5c(cccc5n3O)COC(=O)[C@@H](O[C@H]3C[C@](C)(O)[C@H](N(C)C)[C@H](C)O3)[C@@H](OC4)[C@H](NC(=O)c3csc1n3)c1nc(cs1)C(=O)N2 | 0.25 (≈ 0.174 µM) | 0.06 (≈ 0.0417 µM) | 2 (≈ 1.39 µM) | 1.65 | 700 (≈ 486 µM) | – | –
3 | CO/C(C)=C1/NC(=O)[C@H]([C@@H](C)O)NC(=O)c2csc(n2)-c2cc(O)c(-c3nc(C(=O)N[C@@H](C)C(=O)NCc4ccc(CP(=O)(O)O)cc4)cs3)nc2-c2csc(n2)[C@@H]2COC(=O)c3c4c5c(cccc5n3O)COC(=O)[C@@H](O[C@H]3C[C@](C)(O)[C@H](N(C)C)[C@H](C)O3)[C@@H](OC4)[C@H](NC(=O)c3csc1n3)c1nc(cs1)C(=O)N2 | 1 (≈ 0.616 µM) | 0.25 (≈ 0.154 µM) | 2 (≈ 1.23 µM) | > 10 | – | > 2600 | –
4 | CO/C(C)=C1/NC(=O)[C@H]([C@@H](C)O)NC(=O)c2csc(n2)-c2cc(O)c(-c3nc(C(=O)N[C@@H](C)C(=O)N4CCC[C@H]4CO)cs3)nc2-c2csc(n2)[C@@H]2COC(=O)c3c4c5c(cccc5n3O)COC(=O)[C@@H](O[C@H]3C[C@](C)(O)[C@H](N(C)C)[C@H](C)O3)[C@@H](OC4)[C@H](NC(=O)c3csc1n3)c1nc(cs1)C(=O)N2 | 0.03 (≈ 0.0197 µM) | 0.015 (≈ 0.00984 µM) | 0.25 (≈ 0.164 µM) | 2.18 | 2200 (≈ 1440 µM) | – | –
5 | CO/C(C)=C1/NC(=O)[C@H]([C@@H](C)O)NC(=O)c2csc(n2)-c2cc(O)c(-c3nc(C(=O)N[C@@H](C)C(=O)NCCOCCO)cs3)nc2-c2csc(n2)[C@@H]2COC(=O)c3c4c5c(cccc5n3O)COC(=O)[C@@H](O[C@H]3C[C@](C)(O)[C@H](N(C)C)[C@H](C)O3)[C@@H](OC4)[C@H](NC(=O)c3csc1n3)c1nc(cs1)C(=O)N2 | 0.03 (≈ 0.0196 µM) | 0.015 (≈ 0.00982 µM) | 0.25 (≈ 0.164 µM) | 1 | > 2900 | – | –
6 | CO/C(C)=C1/NC(=O)[C@H]([C@@H](C)O)NC(=O)c2csc(n2)-c2cc(O)c(-c3nc(C(=O)N[C@@H](C)C(=O)NCCc4ccncc4)cs3)nc2-c2csc(n2)[C@@H]2COC(=O)c3c4c5c(cccc5n3O)COC(=O)[C@@H](O[C@H]3C[C@](C)(O)[C@H](N(C)C)[C@H](C)O3)[C@@H](OC4)[C@H](NC(=O)c3csc1n3)c1nc(cs1)C(=O)N2 | 0.125 (≈ 0.0809 µM) | 0.015 (≈ 0.00971 µM) | 0.06 (≈ 0.0388 µM) | 3.3 | – | – | > 3400
7 | CO/C(C)=C1/NC(=O)[C@H]([C@@H](C)O)NC(=O)c2csc(n2)-c2cc(O)c(-c3nc(C(=O)N[C@@H](C)C(=O)NCCOP(=O)([O-])[O-])cs3)nc2-c2csc(n2)[C@@H]2COC(=O)c3c4c5c(cccc5n3O)COC(=O)[C@@H](O[C@H]3C[C@](C)(O)[C@H](N(C)C)[C@H](C)O3)[C@@H](OC4)[C@H](NC(=O)c3csc1n3)c1nc(cs1)C(=O)N2.[Na+].[Na+] | 8 | 0.5 | 16 | 1.65 | – | > 4800 | –
8 | CO/C(C)=C1/NC(=O)[C@H]([C@@H](C)O)NC(=O)c2csc(n2)-c2cc(O)c(-c3nc(C(=O)N[C@@H](C)C(=O)NC[C@H](O)CO)cs3)nc2-c2csc(n2)[C@@H]2COC(=O)c3c4c5c(cccc5n3O)COC(=O)[C@@H](O[C@H]3C[C@](C)(O)[C@H](N(C)C)[C@H](C)O3)[C@@H](OC4)[C@H](NC(=O)c3csc1n3)c1nc(cs1)C(=O)N2 | 0.25 (≈ 0.165 µM) | 0.03 (≈ 0.0198 µM) | 0.25 (≈ 0.165 µM) | 5 | > 2200 | – | –
9 | CO/C(C)=C1/NC(=O)[C@H]([C@@H](C)O)NC(=O)c2csc(n2)-c2cc(O)c(-c3nc(C(=O)N[C@@H](C)C(=O)N[C@@H]4[C@@H](O)[C@H](O)[C@@H](CO)O[C@H]4O)cs3)nc2-c2csc(n2)[C@@H]2COC(=O)c3c4c5c(cccc5n3O)COC(=O)[C@@H](O[C@H]3C[C@](C)(O)[C@H](N(C)C)[C@H](C)O3)[C@@H](OC4)[C@H](NC(=O)c3csc1n3)c1nc(cs1)C(=O)N2 | 1 (≈ 0.624 µM) | 0.06 (≈ 0.0375 µM) | 0.5 (≈ 0.312 µM) | > 10 | > 2200 | – | –
